Measurements published in patent US12473299B2, “Cross-linked nucleoside and nucleotide using same” (Osaka University, priority 2020, dated 2025).
In the oligonucleotide strings, read from the 5' end, every base follows the letter of its sugar. An asterisk marks phosphorothioate; unmarked linkages are phosphodiester. Other units and linkages are bracketed, terminal groups are in braces. A string of capitals states the bases alone. [BANA] = BANA-modified thymidine; l = locked nucleic acid (LNA); [HNA] = hexitol nucleic acid; [5mC] = 5-methylcytosine; d = 2'-deoxy (DNA)

How the values were obtained:
Type in all cases: binding
[1] = system: single-stranded oligo RNA 5′-r(AGCAAAAAACGC)-3′ (SEQ ID No. 18); assay: Double-strand forming ability (Tm) with single-stranded oligo RNA; conditions: for RNA Complement ΔTm: difference from the Tm of the sequence (18); for RNA Complement Tm: sequences (18) to (21), as in Example 9; for ssRNA ΔTm/mod.: Tm change per artificially modified nucleic acid base vs 5′-GCGTTTTTTGCT-3′; for ssRNA Tm: oligonucleotide 4 μM, 10 mM phosphate buffer pH 7.2, 100 mM NaCl, mean of three measurements
[2] = system: single-stranded oligo DNA 5′-d(AGCAAAAAACGC)-3′ (SEQ ID No. 19); assay: Double-strand forming ability (Tm) with single-stranded oligo DNA; conditions: for ssDNA ΔTm/mod.: Tm change per artificially modified nucleic acid base vs 5′-GCGTTTTTTGCT-3′; for ssDNA Tm: oligonucleotide 4 μM, 10 mM phosphate buffer pH 7.2, 100 mM NaCl, mean of three measurements
Procedure: (§1) The double-strand forming ability of the oligonucleotides was examined by subjecting the different types of oligonucleotides and the target strands to an annealing treatment to form double strands, and then measuring their Tm values. More specifically, a mixed liquid of each oligonucleotide (final concentration: 4 μM) and a phosphate buffer (10 mM, pH 7.2, 130 μL) containing sodium chloride (final concentration: 100 mM) was bathed in boiling water and then slowly cooled to room temperature. After that, the mixed liquid was cooled to 5° C. under nitrogen stream before starting the measurement. The temperature was raised to 90° C. at a rate of 0.5° C./min while absorbance at 260 nm was plotted at intervals of 0.5° C. The Tm value was calculated using a median method or differentiation (SEQ ID No. 17), and a mean value of three independent measurements was adopted.

[3] = system: single-stranded oligo RNA 5′-r([…])-3′ (SEQ ID No. 36); assay: Double-strand forming ability (Tm) of mMALAT1 antisense oligonucleotides with RNA; conditions: for RNA Complement Tm: as in Example 9; for RNA Complement ΔTm: difference from the Tm of the sequence (26)
Procedure: as §1
Furthermore, the double-strand forming ability for RNA, of each oligonucleotide was assessed in a manner similar to that of Example 9. Two sequences shown in Table 42 below were used as controls (also represented by SEQ ID Nos. 34 and 35, respectively).
A single-stranded oligo RNA 5′-r([…])-3′ (SEQ ID No. 36) was used as a target strand.

Substance	ssRNA Tm [1] [°C]	ssDNA Tm [2] [°C]	RNA Complement Tm [3] [°C]	RNA Complement ΔTm [3]	other results
5′-d(GCGTT33LTGCT)-3′ (DNA GCGTTTTTTGCT; LNA-T and BANA-T3 modified nucleotides; modified_base (6)..(7) t = BANA-t3; modified_base (8)..(8) t =LNA-t) [(21), L=LNA-T, 3=Compound 25 (BANA-T3)]					RNA Complement ΔTm [1]: −2 °C; RNA Complement Tm [1]: 61 °C
5′-d(GCGTTL33TGCT)-3′ (DNA GCGTTTTTTGCT; LNA-T and BANA-T3 modified nucleotides; modified_base (6)..(6) t = LNA-t; modified_base (7)..(8) t = BANA-t3) [(19), L=LNA-T, 3=Compound 25 (BANA-T3)]					RNA Complement ΔTm [1]: +1 °C; RNA Complement Tm [1]: 64 °C
5′-d(GCGTTHTTTGCT)-3′ (DNA GCGTTTTTTGCT; sugars from the 5' end d5 [HNA]1 d6, backbone not given here) [H=HNA-T, reference compound]	49	47			ssRNA ΔTm/mod. [1]: +1 °C; ssDNA ΔTm/mod. [2]: −4 °C
5′-d(c^t^a^g^t^t^c^a^c^t^g^a^a^t^g^c)-3′ (antisense dC*dT*dA*dG*dT*dT*dC*dA*dC*dT*dG*dA*dA*dT*dG*dC) [(27), control, PS DNA, reference compound]			44.2	−17.9 °C	
5′-d(GCG111111GCT)-3′ (DNA GCGTTTTTTGCT; BANA-T1 modified nucleotides; modified_base (4)..(9) ANA-t1) [5′-GCG111111GCT-3′]	68	40			ssRNA ΔTm/mod. [1]: +3.3 °C; ssDNA ΔTm/mod. [2]: −1.8 °C
5′-d(5^T^^LA^g^t^t^c^a^c^t^g^a^a^T^LG^5)-3′ (antisense CTAGTTCACTGAATGC; BANA and LNA modifications, phosphorothioate linkages; modified_base (1)..(1) c = SANA-mC3; modified_base (2)..(2) t = SANA-t3; modified_base (2)..(13) phosphorothioated; modified_base (3)..(3) a = LNA-a; modified_base (14)..(14) t = SANA-t3; modified_base (15)..(15) g = LNA-g; modified_base (16)..(16) c = SANA-mC3) [(24), antisense oligonucleotide against mMALAT1; 5: BANA-^mC3, T: BANA-T3]			61.7	−0.4 °C	
5′-d(GCGTTTTTTGCT)-3′ (DNA, backbone and methylation of C not given here) [native DNA (dT), reference compound]	48	51			
5′-d(GCGTT3L3TGCT)-3′ (DNA GCGTTTTTTGCT; LNA-T and BANA-T3 modified nucleotides; modified_base (6)..(6) t = BANA-t3; modified_base (7)..(7) t = LNA-t; modified_base (8)..(8) t = BANA-t3) [(20), L=LNA-T, 3=Compound 25 (BANA-T3)]					RNA Complement ΔTm [1]: −3 °C; RNA Complement Tm [1]: 60 °C
5′-d(^LC^^LT^^LA^g^t^t^c^a^c^t^g^a^a^^LT^^LG^^LC)-3′ (antisense CTAGTTCACTGAATGC; sugars from the 5' end l3 d10 l3, all phosphorothioate, methylation of C not given here) [(26), control, LNA gapmer with PS, reference compound]			62.1		
5′-d(GCGTT1TTTGCT)-3′ (DNA GCGTTTTTTGCT; BANA-T1 modified nucleotide; modified_base (6)..(6) t = BANA-t1) [5′-GCGTT1TTTGCT-3′]	44	41			ssRNA ΔTm/mod. [1]: −4 °C; ssDNA ΔTm/mod. [2]: −10 °C
5′-d(5T^LA^g^t^t^c^a^c^t^g^a^a^T^^LG^5)-3′ (antisense CTAGTTCACTGAATGC; BANA and LNA modifications, phosphorothioate linkages; modified_base (1)..(1) c = SANA-mC3; modified_base (2)..(2) t = SANA-t3; modified_base (3)..(3) a = LNA-a; modified_base (4)..(16) phosphorothioated; modified_base (14)..(14) t = SANA-t3; modified_base (15)..(15) g = LNA-g; modified_base (16)..(16) c = SANA-mC3) [(23), antisense oligonucleotide against mMALAT1; 5: BANA-^mC3, T: BANA-T3]			61.0	−1.1 °C	
5′-d(5^T^^LA^g^t^t^c^a^c^t^g^a^a^T^^LG^5)-3′ (antisense CTAGTTCACTGAATGC; sugars from the 5' end [BANA][BANA]ldddddddddd[BANA]l[BANA], [5mC] at 1, 16, all phosphorothioate, methylation of C not given here) [(22), antisense oligonucleotide against mMALAT1; 5: BANA-^mC3, T: BANA-T3, {circumflex}: PS]			60.3	−1.8 °C	
5′-d(5T^LA^g^t^t^c^a^c^t^g^a^a^T^LG^5)-3′ (antisense CTAGTTCACTGAATGC; BANA and LNA modifications, phosphorothioate linkages; modified_base (1)..(1) c = BANA-mC3; modified_base (2)..(2) t = BANA-t3; modified_base (3)..(3) a = LNA-a; modified_base (3)..(13) phosphorothioated; modified_base (14)..(14) t = BANA-t3; modified_base (15)..(15) g = LNA-g; modified_base (16)..(16) c = BANA-mC3) [(25), antisense oligonucleotide against mMALAT1; 5: BANA-^mC3, T: BANA-T3]			63.4	+1.3 °C	
5′-d(GCG222222GCT)-3′ (DNA GCGTTTTTTGCT; BANA-T2 modified nucleotides; modified_base (4)..(9) t = BANA-t2) [5′-GCG222222GCT-3′, 2=Compound 19 (BANA-T2)]	75	47			ssRNA ΔTm/mod. [1]: +4.5 °C; ssDNA ΔTm/mod. [2]: −0.7 °C
5′-d(GCGTTLLLTGCT)-3′ (DNA GCGTTTTTTGCT; sugars from the 5' end d5 l3 d4, backbone not given here) [(18), L=LNA-T (LNA), reference compound]					RNA Complement Tm [1]: 63 °C
